{"source": "PubChem BioAssay (NCI)", "test_in_all_cases": "inhibition of tumour cell growth, NCI panel, 48 h", "key": {"[1]": {"test_system": "786-0 renal"}, "[2]": {"test_system": "A498 renal"}, "[3]": {"test_system": "A549 NSCLC"}, "[4]": {"test_system": "ACHN renal"}, "[5]": {"test_system": "BT-549 breast"}, "[6]": {"test_system": "CAKI-1 renal"}, "[7]": {"test_system": "CCRF-CEM leukemia"}, "[8]": {"test_system": "COLO 205 colon"}, "[9]": {"test_system": "DU-145 prostate"}, "[10]": {"test_system": "EKVX NSCLC"}, "[11]": {"test_system": "HCT-116 colon"}, "[12]": {"test_system": "HCT-15 colon"}, "[13]": {"test_system": "HL-60(TB) leukemia"}, "[14]": {"test_system": "HOP-92 NSCLC"}, "[15]": {"test_system": "HS 578T breast"}, "[16]": {"test_system": "HT29 colon"}, "[17]": {"test_system": "IGROV1 ovarian"}, "[18]": {"test_system": "K-562 leukemia"}, "[19]": {"test_system": "KM12 colon"}, "[20]": {"test_system": "M14 melanoma"}, "[21]": {"test_system": "MALME-3M melanoma"}, "[22]": {"test_system": "MCF7 breast"}, "[23]": {"test_system": "MDA-MB-231 breast"}, "[24]": {"test_system": "MDA-MB-435"}, "[25]": {"test_system": "MDA-N"}, "[26]": {"test_system": "MOLT-4 leukemia"}, "[27]": {"test_system": "NCI-H226 lung"}, "[28]": {"test_system": "NCI-H23 lung"}, "[29]": {"test_system": "NCI-H460 lung"}, "[30]": {"test_system": "NCI-H522 lung"}, "[31]": {"test_system": "NCI/ADR-RES ovarian"}, "[32]": {"test_system": "OVCAR-4 ovarian"}, "[33]": {"test_system": "OVCAR-5 ovarian"}, "[34]": {"test_system": "OVCAR-8 ovarian"}, "[35]": {"test_system": "PC-3 prostate"}, "[36]": {"test_system": "RPMI-8226 leukemia"}, "[37]": {"test_system": "RXF 393 renal"}, "[38]": {"test_system": "SF-268 CNS"}, "[39]": {"test_system": "SF-295 CNS"}, "[40]": {"test_system": "SF-539 CNS"}, "[41]": {"test_system": "SK-MEL-2 melanoma"}, "[42]": {"test_system": "SK-MEL-28 melanoma"}, "[43]": {"test_system": "SK-MEL-5 melanoma"}, "[44]": {"test_system": "SK-OV-3 ovarian"}, "[45]": {"test_system": "SN12C renal"}, "[46]": {"test_system": "SNB-19 CNS"}, "[47]": {"test_system": "SNB-75 CNS"}, "[48]": {"test_system": "SR leukemia"}, "[49]": {"test_system": "SW-620 colon"}, "[50]": {"test_system": "T-47D breast"}, "[51]": {"test_system": "TK-10 renal"}, "[52]": {"test_system": "U251 CNS"}, "[53]": {"test_system": "UACC-257 melanoma"}, "[54]": {"test_system": "UACC-62 melanoma"}, "[55]": {"test_system": "UO-31 renal"}}, "note": "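Briefly, cells in 96-well plates were exposed to five compound concentrations for 48 h, and endpoints were estimated by linear interpolation. TGI: total growth inhibition.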", "data": [{"smiles": "Nc1ncn2c(n1)nc1ccccc12", "values": [{"measurement": "TGI", "setting": "[1]", "value": "> 100", "unit": "µM"}, {"measurement": "TGI", "setting": "[2]", "value": "> 100", "unit": "µM"}, {"measurement": "TGI", "setting": "[3]", "value": "> 100", "unit": "µM"}, {"measurement": "TGI", "setting": "[4]", "value": "> 100", "unit": "µM"}, {"measurement": "TGI", "setting": "[5]", "value": "> 100", "unit": "µM"}, {"measurement": "TGI", "setting": "[6]", "value": "> 100", "unit": "µM"}, {"measurement": "TGI", "setting": "[7]", "value": "> 100", "unit": "µM"}, {"measurement": "TGI", "setting": "[8]", "value": "> 100", "unit": "µM"}, {"measurement": "TGI", "setting": "[9]", "value": "> 100", "unit": "µM"}, {"measurement": "TGI", "setting": "[10]", "value": "> 100", "unit": "µM"}, {"measurement": "TGI", "setting": "[11]", "value": "> 100", "unit": "µM"}, {"measurement": "TGI", "setting": "[12]", "value": "> 100", "unit": "µM"}, {"measurement": "TGI", "setting": "[13]", "value": "> 100", "unit": "µM"}, {"measurement": "TGI", "setting": "[14]", "value": "> 100", "unit": "µM"}, {"measurement": "TGI", "setting": "[15]", "value": "> 100", "unit": "µM"}, {"measurement": "TGI", "setting": "[16]", "value": "> 100", "unit": "µM"}, {"measurement": "TGI", "setting": "[17]", "value": "> 100", "unit": "µM"}, {"measurement": "TGI", "setting": "[18]", "value": "> 100", "unit": "µM"}, {"measurement": "TGI", "setting": "[19]", "value": "> 100", "unit": "µM"}, {"measurement": "TGI", "setting": "[20]", "value": "> 100", "unit": "µM"}, {"measurement": "TGI", "setting": "[21]", "value": "> 100", "unit": "µM"}, {"measurement": "TGI", "setting": "[22]", "value": "> 100", "unit": "µM"}, {"measurement": "TGI", "setting": "[23]", "value": "> 100", "unit": "µM"}, {"measurement": "TGI", "setting": "[24]", "value": "> 100", "unit": "µM"}, {"measurement": "TGI", "setting": "[25]", "value": "> 100", "unit": "µM"}, {"measurement": "TGI", "setting": "[26]", "value": "> 100", "unit": "µM"}, {"measurement": "TGI", "setting": "[27]", "value": "> 100", "unit": "µM"}, {"measurement": "TGI", "setting": "[28]", "value": "> 100", "unit": "µM"}, {"measurement": "TGI", "setting": "[29]", "value": "> 100", "unit": "µM"}, {"measurement": "TGI", "setting": "[30]", "value": "> 100", "unit": "µM"}, {"measurement": "TGI", "setting": "[31]", "value": "> 100", "unit": "µM"}, {"measurement": "TGI", "setting": "[32]", "value": "> 100", "unit": "µM"}, {"measurement": "TGI", "setting": "[33]", "value": "> 100", "unit": "µM"}, {"measurement": "TGI", "setting": "[34]", "value": "> 100", "unit": "µM"}, {"measurement": "TGI", "setting": "[35]", "value": "> 100", "unit": "µM"}, {"measurement": "TGI", "setting": "[36]", "value": "> 100", "unit": "µM"}, {"measurement": "TGI", "setting": "[37]", "value": "> 100", "unit": "µM"}, {"measurement": "TGI", "setting": "[38]", "value": "> 100", "unit": "µM"}, {"measurement": "TGI", "setting": "[39]", "value": "> 100", "unit": "µM"}, {"measurement": "TGI", "setting": "[40]", "value": "> 100", "unit": "µM"}, {"measurement": "TGI", "setting": "[41]", "value": "> 100", "unit": "µM"}, {"measurement": "TGI", "setting": "[42]", "value": "> 100", "unit": "µM"}, {"measurement": "TGI", "setting": "[43]", "value": "> 100", "unit": "µM"}, {"measurement": "TGI", "setting": "[44]", "value": "> 100", "unit": "µM"}, {"measurement": "TGI", "setting": "[45]", "value": "> 100", "unit": "µM"}, {"measurement": "TGI", "setting": "[46]", "value": "> 100", "unit": "µM"}, {"measurement": "TGI", "setting": "[47]", "value": 78.9, "unit": "µM"}, {"measurement": "TGI", "setting": "[48]", "value": "> 100", "unit": "µM"}, {"measurement": "TGI", "setting": "[49]", "value": "> 100", "unit": "µM"}, {"measurement": "TGI", "setting": "[50]", "value": "> 100", "unit": "µM"}, {"measurement": "TGI", "setting": "[51]", "value": "> 100", "unit": "µM"}, {"measurement": "TGI", "setting": "[52]", "value": "> 100", "unit": "µM"}, {"measurement": "TGI", "setting": "[53]", "value": "> 100", "unit": "µM"}, {"measurement": "TGI", "setting": "[54]", "value": "> 100", "unit": "µM"}, {"measurement": "TGI", "setting": "[55]", "value": "> 100", "unit": "µM"}]}]}
